Reference: patent US4894392A, “Aminoalkyl naphthalenediols as host resistance enhancers” (priority 1988, dated 1990)
Where a name gives a salt, the structure may show the parent alone.

test system: Pseudomonas aeruginosa; experiment: In vivo immunopotentiation against challenge with lethal doses of Pseudomonas aeruginosa (cyclophosphamide-immunocompromised mouse model); parameters: species or system random outbred albino CF1 female mice; conditions: CY 250 mg/kg i.p. 4 days before P. aeruginosa challenge; test compound injected once, 2 hours after CY
Method: An immunocompromised mouse model, established by intraperitoneal treatment of random outbred albino CF1 female mice (ca. 25 g) with 250 mg/kg body weight of cyclophosphamide (CY) 4 days prior to bacterial challenge with Pseudomonas aeruginosa, was used as the assay system. In this model, test compounds were injected only once (2 hours) after CY treatment. After bacterial challenge, LD50 's (50% lethal doses) were determined. Increased LD50 's in treated mice over controls indicated a return to normality. The LD50 for untreated or vehicle-treated mice was routinely 10^6 -10^7 colony forming units (CFU) of P. aeruginosa organisms. After CY treatment, the LD50 was reduced to 10^1 to 10^2 CFU's. The protection afforded by test compound (Protective Index) was determined by calculating the number of LD50 's of protection of treated animals over the LD50 of CY controls.

Row | Compound | Relative No. LD50's (Protective Index: number of LD50's of protection of treated animals over the LD50 of CY controls)
1 | CC(C)(C)C1CCC(NCc2ccc3c(CNC4CCC(C(C)(C)C)CC4)c(O)ccc3c2O)CC1 (mixture of isomers) [Example 3, 1,6-Dihydroxy-2,5-bis-(4-tert-butylcyclohexylaminomethyl)-naphthalene dihydrochloride (mixture of isomers)] | 2128
2 | CC1CCCCC1NCc1ccc2c(CNC3CCCCC3C)c(O)ccc2c1O (mixture of isomers) [Example 5, 1,6-Dihydroxy-2,5-bis-(2-methylcyclohexylaminomethyl)-naphthalene dihydrochloride (mixture of isomers)] | 133
3 | CC1CCCC(NCc2ccc3c(CNC4CCCC(C)C4)c(O)ccc3c2O)C1 (mixture of isomers) [Example 6, 1,6-Dihydroxy-2,5-bis-(3-methylcyclohexylaminomethyl)-naphthalene dihydrochloride (mixture of isomers)] | 151
4 | CC(C)(C)C1CCC(NCc2ccc3c(CNC4CCC(C(C)(C)C)CC4)c(O)ccc3c2O)CC1.Cl.Cl (single isomer, unassigned) [Example 4, 1,6-Dihydroxy-2,5-bis-(4-tert-butylcyclohexylaminomethyl)-naphthalene dihydrochloride (single isomer)] | 1000
5 | Cl.Cl.Oc1ccc2c(O)c(CNCC3CCCCC3)ccc2c1CNCC1CCCCC1 [Example 2, 1,6-Dihydroxy-2,5-bis-(cyclohexylmethylaminomethyl)-naphthalene dihydrochloride] | 320
6 | C[C@H]1CC[C@H](NCc2ccc3c(CN[C@H]4CC[C@H](C)CC4)c(O)ccc3c2O)CC1.Cl.Cl [Example 7, 1,6-Dihydroxy-2,5-bis-(trans-4-methylcyclohexylaminomethyl)-naphthalene dihydrochloride] | 1000

same assay, conditions: cyclophosphamide-immune compromised mouse, P. aeruginosa lethal challenge

Row | Compound | LD50 raised over untreated controls
7 | CC(C)(C)C1CCC(NCc2ccc3c(CNC4CCC(C(C)(C)C)CC4)c(O)ccc3c2O)CC1.Cl.Cl (single isomer, unassigned) [Example 4, 1,6-Dihydroxy-2,5-bis-(4-tert-butylcyclohexylaminomethyl)-naphthalene dihydrochloride (single isomer)] | 1000 fold
